Laboratory results from ChEMBL document CHEMBL1147251, “Crambescidin 826 and dehydrocrambine A: new polycyclic guanidine alkaloids from the marine sponge Monanchora sp. that inhibit HIV-1 fusion” (J Nat Prod, 2003).
Activity calls are given as the source filed them. The rule behind the calls is not given here.

Experiments:
[1] = Inhibition of HIV1 LAV gp120 binding to CD4 assessed as inhibition of CD4 expressing african green monkey BSC1 cells fusion to CXCR4 expressing mouse NIH3T3 cells after 2.5 hrs by beta-galactosidase assay; format: cell-based, Human immunodeficiency virus 1
[2] = Inhibition of HIV1 SF162 gp120 binding to CD4 assessed as inhibition of CD4 expressing african green monkey BSC1 cells fusion to CCR5 expressing mouse NIH3T3 cells after 2.5 hrs by beta-galactosidase assay; format: cell-based, Human immunodeficiency virus 1
[3] = system: NIH3T3; assay: Inhibition of HIV1 LAV gp120 binding to CD4 assessed as inhibition of CD4 expressing african green monkey BSC1 cells fusion to CXCR4 expressing mouse NIH3T3 cells treated after 15 to 90 mins of fusion measured after 2.5 hrs by beta-galactosidase assay; format: cell-based; settings: Human immunodeficiency virus 1
[4] = system: NIH3T3; assay: Inhibition of HIV1 SF162 gp120 binding to CD4 assessed as inhibition of CD4 expressing african green monkey BSC1 cells fusion to CCR5 expressing mouse NIH3T3 cells treated after 15 to 90 mins of fusion measured after 2.5 hrs by beta-galactosidase assay; format: cell-based; settings: Human immunodeficiency virus 1

| SMILES | IC50 [1] [µM] | IC50 [2] [µM] | Activity [3] | Activity [4] |
| --- | --- | --- | --- | --- |
| CC[C@H]1C=CCC[C@@]2(C[C@@H]3CC[C@@H]4[C@H](C(=O)OCCCCCCCCCCCCCCCC5=NCCCN5CC(O)CCN)[C@]5(CCC[C@@H](C)O5)N=C(N2)N34)O1 (stereo not given in full) [FROMIAMYCALIN] | 1 | 1 | – | – |
| CC[C@H]1C=CCC[C@@]2(C[C@@H]3CC[C@@H]4[C@H](C(=O)OCCCCCCCCCCCCCCCCCC(=O)N(CCCN)CCCC(N)=O)[C@]5(CCC[C@@H](C)O5)N=C(N2)N34)O1 [CRAMBESCIDIN 826] | 1 | 1 | – | – |
| CC[C@H]1CCCC[C@@]2(C[C@@H]3CC[C@@H]4[C@H](C(=O)OCCCCCCCCCCCCCCCC(=O)N(CCCN)C[C@@H](O)CCN)[C@]5(CCC[C@@H](C)O5)N=C(N2)N34)O1 [CRAMBESCIDIN 800] | 1 | 1 | inactive | inactive |
| CCCCCCCCCCCc1nc(=N)n2c(c1C(=O)OCCCCNC(=N)N)CCC2 [DEHYDROCRAMBINE A] | 35 | 35 | – | – |
